From patent publication US20220088016A1, “CANCER TREATMENT USING MULTI-TARGETED KINASE INHIBITOR IN COMBINATION OF PROTEIN KINASE BIOMARKERS” (ZHEJIANG CROWNMAB BIOTECH CO. LTD., priority 2019, published 2022)

Experiments:
[1] = biological target: ABL1 (E255K)-phosphorylated (Homo sapiens, UniProt P00519, E255K); test: Kinase profiling; assay type: binding; conditions: read-out: % Ctrl @ 1000 nM
[2] = biological target: ABL1 (F317L)-phosphorylated (Homo sapiens, UniProt P00519, F317L); test: Kinase profiling; assay type: binding; conditions: read-out: % Ctrl @ 1000 nM
AKT2 = AKT2 (Homo sapiens, UniProt P31751); test: Kinase profiling; assay type: binding; conditions: read-out: % Ctrl @ 1000 nM
BRAF (V600E) = BRAF (V600E) (Homo sapiens, UniProt P15056, V600E); test: Kinase profiling; assay type: binding; conditions: read-out: % Ctrl @ 1000 nM
CAMK2A = CAMK2A (Homo sapiens, UniProt Q9UQM7); test: Kinase profiling; assay type: binding; conditions: read-out: % Ctrl @ 1000 nM
CDK11 = CDK11 (Homo sapiens, UniProt Q9BWU1); test: Kinase profiling; assay type: binding; conditions: read-out: % Ctrl @ 1000 nM
CDK8 = CDK8 (Homo sapiens, UniProt P49336); test: Kinase profiling; assay type: binding; conditions: read-out: % Ctrl @ 1000 nM
CHEK2 = CHEK2 (Homo sapiens, UniProt O96017); test: Kinase profiling; assay type: binding; conditions: read-out: % Ctrl @ 1000 nM
CSK = CSK (Homo sapiens, UniProt P41240); test: Kinase profiling; assay type: binding; conditions: read-out: % Ctrl @ 1000 nM
CSNK1E = CSNK1E (Homo sapiens, UniProt P49674); test: Kinase profiling; assay type: binding; conditions: read-out: % Ctrl @ 1000 nM
CSNK1G2 = CSNK1G2 (Homo sapiens, UniProt P78368); test: Kinase profiling; assay type: binding; conditions: read-out: % Ctrl @ 1000 nM
CSNK2A2 = CSNK2A2 (Homo sapiens, UniProt P19784); test: Kinase profiling; assay type: binding; conditions: read-out: % Ctrl @ 1000 nM
EPHA5 = EPHA5 (Homo sapiens, UniProt P54756); test: Kinase profiling; assay type: binding; conditions: read-out: % Ctrl @ 1000 nM
EPHB6 = EPHB6 (Homo sapiens, UniProt O15197); test: Kinase profiling; assay type: binding; conditions: read-out: % Ctrl @ 1000 nM
FLT3 (D835H) = FLT3 (D835H) (Homo sapiens, UniProt P36888, D835H); test: Kinase profiling; assay type: binding; conditions: read-out: % Ctrl @ 1000 nM
HIPK3 = HIPK3 (Homo sapiens, UniProt Q9H422); test: Kinase profiling; assay type: binding; conditions: read-out: % Ctrl @ 1000 nM
IKK-epsilon = IKK-epsilon (Homo sapiens, UniProt Q14164); test: Kinase profiling; assay type: binding; conditions: read-out: % Ctrl @ 1000 nM
ITK = ITK (Homo sapiens, UniProt Q08881); test: Kinase profiling; assay type: binding; conditions: read-out: % Ctrl @ 1000 nM
KIT (V559D) = KIT (V559D) (Homo sapiens, UniProt P10721, V559D); test: Kinase profiling; assay type: binding; conditions: read-out: % Ctrl @ 1000 nM
LCK = LCK (Homo sapiens, UniProt P06239); test: Kinase profiling; assay type: binding; conditions: read-out: % Ctrl @ 1000 nM
MAP3K3 = MAP3K3 (Homo sapiens, UniProt Q99759); test: Kinase profiling; assay type: binding; conditions: read-out: % Ctrl @ 1000 nM
MAPKAPK2 = MAPKAPK2 (Homo sapiens, UniProt P49137); test: Kinase profiling; assay type: binding; conditions: read-out: % Ctrl @ 1000 nM
MARK3 = MARK3 (Homo sapiens, UniProt P27448); test: Kinase profiling; assay type: binding; conditions: read-out: % Ctrl @ 1000 nM
MKNK1 = biological target: T1, MKNK1 (Homo sapiens, UniProt Q9BUB5); test: Kinase profiling; assay type: binding; conditions: read-out: % Ctrl @ 1000 nM
T1 construct: T7 phage fusion (stated for most kinases of the panel only); made in house; host or cells: T7 phage in E. coli (BL21-derived) or HEK-293 cells

NEK7 = biological target: T2, NEK7 (Homo sapiens, UniProt Q8TDX7); test: Kinase profiling; assay type: binding; conditions: read-out: % Ctrl @ 1000 nM
T2 construct: T7 phage fusion (said for most assays); made in house

NLK = biological target: T3, NLK (Homo sapiens, UniProt Q9UBE8); test: Kinase profiling; assay type: binding; conditions: read-out: % Ctrl @ 1000 nM
T3 construct: T7 phage fusion (said for most assays); made in house

p38-alpha = p38-alpha (Homo sapiens, UniProt Q16539); test: Kinase profiling; assay type: binding; conditions: read-out: % Ctrl @ 1000 nM
PAK6 = PAK6 (Homo sapiens, UniProt Q9NQU5); test: Kinase profiling; assay type: binding; conditions: read-out: % Ctrl @ 1000 nM
PIK3CA = PIK3CA (Homo sapiens, UniProt P42336); test: Kinase profiling; assay type: binding; conditions: read-out: % Ctrl @ 1000 nM
PIK3CA (I800L) = PIK3CA (I800L) (Homo sapiens, UniProt P42336, I800L); test: Kinase profiling; assay type: binding; conditions: read-out: % Ctrl @ 1000 nM
PIM1 = PIM1 (Homo sapiens, UniProt P11309); test: Kinase profiling; assay type: binding; conditions: read-out: % Ctrl @ 1000 nM
PRKX = PRKX (Homo sapiens, UniProt P51817); test: Kinase profiling; assay type: binding; conditions: read-out: % Ctrl @ 1000 nM
SNRK = SNRK (Homo sapiens, UniProt Q9NRH2); test: Kinase profiling; assay type: binding; conditions: read-out: % Ctrl @ 1000 nM
TESK1 = TESK1 (Homo sapiens, UniProt Q15569); test: Kinase profiling; assay type: binding; conditions: read-out: % Ctrl @ 1000 nM
TNK2 = TNK2 (Homo sapiens, UniProt Q07912); test: Kinase profiling; assay type: binding; conditions: read-out: % Ctrl @ 1000 nM
TSSK1B = TSSK1B (Homo sapiens, UniProt Q9BXA7); test: Kinase profiling; assay type: binding; conditions: read-out: % Ctrl @ 1000 nM
WEE2 = WEE2 (Homo sapiens, UniProt P0C1S8); test: Kinase profiling; assay type: binding; conditions: read-out: % Ctrl @ 1000 nM
403 non-mutant kinases = test: Selectivity Score from kinase profiling
Procedure: Streptavidin-coated magnetic beads were treated with biotinylated small molecule ligands of the kinases for 30 minutes at room temperature to generate affinity resins for kinase assays. The liganded beads were blocked with excess biotin and washed with blocking buffer (SeaBlock (Pierce), 1% BSA, 0.05% Tween 20, 1 mM DTT) to remove unbound ligand and to reduce non-specific phage binding. Binding reactions were assembled by combining kinases, liganded affinity beads, and test compounds in 1× binding buffer (20% SeaBlock, 0.17×PBS, 0.05% Tween 20, 6 mM DTT). Test compounds were prepared as 40× stocks in 100% DMSO and directly diluted into the assay. All reactions were performed in polypropylene 384-well plates in a final volume of 0.04 ml. The assay plates were incubated at room temperature with shaking for 1 hour and the affinity beads were washed with wash buffer (1×PBS, 0.05% Tween 20). The beads were then re-suspended in elution buffer (1×PBS, 0.05% Tween 20, 0.5 μM non-biotinylated affinity ligand) and incubated at room temperature with shaking for 30 minutes. The kinase concentration in the eluates was measured by qPCR.
Selectivity Score or S-score is a quantitative measure of compound selectivity. It is calculated by dividing the number of kinases that compounds bind to by the total number of distinct kinases tested, excluding mutant variants.
S=Number of hits/Number of assays
This value can be calculated using % Ctrl as a potency threshold (below) and provides a quantitative method of describing compound selectivity to facilitate comparison of different compounds.
S(35)=(number of non-mutant kinases with % Ctrl<35)/(number of non-mutant kinases tested)
S(10)=(number of non-mutant kinases with % Ctrl<10)/(number of non-mutant kinases tested)
S(1)=(number of non-mutant kinases with % Ctrl<1)/(number of non-mutant kinases tested)

T1 sequence (Q9BUB5 whole entry, the tested form may be a part): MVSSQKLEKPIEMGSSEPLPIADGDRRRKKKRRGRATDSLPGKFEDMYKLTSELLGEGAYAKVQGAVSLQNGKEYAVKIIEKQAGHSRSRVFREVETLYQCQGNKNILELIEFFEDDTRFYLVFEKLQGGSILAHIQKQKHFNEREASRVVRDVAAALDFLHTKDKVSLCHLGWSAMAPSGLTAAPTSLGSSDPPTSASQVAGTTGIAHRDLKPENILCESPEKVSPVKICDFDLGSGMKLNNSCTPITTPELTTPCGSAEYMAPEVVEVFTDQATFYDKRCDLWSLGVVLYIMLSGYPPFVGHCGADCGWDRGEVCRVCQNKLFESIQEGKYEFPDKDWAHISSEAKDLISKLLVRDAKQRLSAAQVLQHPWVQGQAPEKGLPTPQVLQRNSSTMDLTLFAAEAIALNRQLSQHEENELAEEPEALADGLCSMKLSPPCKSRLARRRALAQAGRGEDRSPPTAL
Chain of TSSK1B (Q9BXA7 whole entry): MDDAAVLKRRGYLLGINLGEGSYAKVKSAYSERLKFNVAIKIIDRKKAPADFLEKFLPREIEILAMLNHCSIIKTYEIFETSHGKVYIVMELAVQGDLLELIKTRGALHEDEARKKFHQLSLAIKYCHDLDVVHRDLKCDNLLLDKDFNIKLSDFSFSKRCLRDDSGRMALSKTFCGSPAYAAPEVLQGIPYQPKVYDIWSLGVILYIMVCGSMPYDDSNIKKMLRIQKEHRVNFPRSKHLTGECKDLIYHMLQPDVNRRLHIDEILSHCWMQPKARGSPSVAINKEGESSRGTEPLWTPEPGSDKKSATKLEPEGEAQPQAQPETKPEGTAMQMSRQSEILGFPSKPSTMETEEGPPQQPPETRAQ
Chain of CSNK1E (P49674 whole entry): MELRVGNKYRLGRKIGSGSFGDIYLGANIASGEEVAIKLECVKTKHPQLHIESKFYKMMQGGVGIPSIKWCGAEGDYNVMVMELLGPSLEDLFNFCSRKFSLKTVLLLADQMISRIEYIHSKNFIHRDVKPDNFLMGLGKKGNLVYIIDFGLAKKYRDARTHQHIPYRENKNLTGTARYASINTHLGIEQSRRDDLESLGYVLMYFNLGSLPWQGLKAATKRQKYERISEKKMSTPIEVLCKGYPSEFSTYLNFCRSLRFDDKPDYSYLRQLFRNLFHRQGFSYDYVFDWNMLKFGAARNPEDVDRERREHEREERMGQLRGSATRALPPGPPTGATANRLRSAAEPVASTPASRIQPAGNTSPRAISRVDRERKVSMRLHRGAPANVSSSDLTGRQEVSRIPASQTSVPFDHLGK
T3 sequence (Q9UBE8 whole entry, the tested form may be a part): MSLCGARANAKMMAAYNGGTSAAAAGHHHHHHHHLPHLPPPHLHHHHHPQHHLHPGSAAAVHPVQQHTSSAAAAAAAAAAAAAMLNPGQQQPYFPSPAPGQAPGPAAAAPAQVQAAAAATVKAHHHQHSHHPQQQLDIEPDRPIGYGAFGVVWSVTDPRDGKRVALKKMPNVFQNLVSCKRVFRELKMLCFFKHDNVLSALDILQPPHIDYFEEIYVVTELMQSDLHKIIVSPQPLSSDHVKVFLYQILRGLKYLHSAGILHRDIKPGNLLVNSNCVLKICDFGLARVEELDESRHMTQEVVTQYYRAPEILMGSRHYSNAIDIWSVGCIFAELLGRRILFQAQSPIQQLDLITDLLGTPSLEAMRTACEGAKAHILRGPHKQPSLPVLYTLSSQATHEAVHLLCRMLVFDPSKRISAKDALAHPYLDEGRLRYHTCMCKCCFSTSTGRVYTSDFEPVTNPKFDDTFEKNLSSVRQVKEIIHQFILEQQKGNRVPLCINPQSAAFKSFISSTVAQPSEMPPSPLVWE
Chain of KIT (V559D) (P10721 26-976 V559D): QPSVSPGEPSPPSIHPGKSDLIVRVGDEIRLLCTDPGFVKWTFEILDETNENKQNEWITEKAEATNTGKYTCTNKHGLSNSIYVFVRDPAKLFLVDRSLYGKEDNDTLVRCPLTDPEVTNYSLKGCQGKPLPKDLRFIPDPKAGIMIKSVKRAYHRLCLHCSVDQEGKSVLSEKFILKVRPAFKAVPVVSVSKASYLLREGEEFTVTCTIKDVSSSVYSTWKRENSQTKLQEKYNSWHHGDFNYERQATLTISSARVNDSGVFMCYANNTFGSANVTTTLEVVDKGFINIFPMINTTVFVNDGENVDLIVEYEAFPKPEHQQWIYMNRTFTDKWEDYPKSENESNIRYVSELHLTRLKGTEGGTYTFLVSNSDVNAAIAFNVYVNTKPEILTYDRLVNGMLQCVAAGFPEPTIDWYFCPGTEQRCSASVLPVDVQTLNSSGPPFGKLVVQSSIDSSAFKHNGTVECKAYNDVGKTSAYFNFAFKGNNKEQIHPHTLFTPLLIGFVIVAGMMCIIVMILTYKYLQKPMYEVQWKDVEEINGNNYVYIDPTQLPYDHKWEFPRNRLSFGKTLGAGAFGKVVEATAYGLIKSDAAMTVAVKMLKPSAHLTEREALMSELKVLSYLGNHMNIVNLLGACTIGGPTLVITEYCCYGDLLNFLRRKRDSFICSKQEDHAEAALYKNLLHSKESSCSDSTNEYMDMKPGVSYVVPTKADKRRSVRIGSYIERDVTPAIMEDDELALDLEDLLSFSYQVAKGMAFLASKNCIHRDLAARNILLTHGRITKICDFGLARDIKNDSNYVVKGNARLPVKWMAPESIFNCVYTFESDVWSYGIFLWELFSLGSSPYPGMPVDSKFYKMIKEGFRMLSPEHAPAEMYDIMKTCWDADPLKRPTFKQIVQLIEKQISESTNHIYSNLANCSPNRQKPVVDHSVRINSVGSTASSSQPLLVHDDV
Chain of PRKX (P51817 whole entry): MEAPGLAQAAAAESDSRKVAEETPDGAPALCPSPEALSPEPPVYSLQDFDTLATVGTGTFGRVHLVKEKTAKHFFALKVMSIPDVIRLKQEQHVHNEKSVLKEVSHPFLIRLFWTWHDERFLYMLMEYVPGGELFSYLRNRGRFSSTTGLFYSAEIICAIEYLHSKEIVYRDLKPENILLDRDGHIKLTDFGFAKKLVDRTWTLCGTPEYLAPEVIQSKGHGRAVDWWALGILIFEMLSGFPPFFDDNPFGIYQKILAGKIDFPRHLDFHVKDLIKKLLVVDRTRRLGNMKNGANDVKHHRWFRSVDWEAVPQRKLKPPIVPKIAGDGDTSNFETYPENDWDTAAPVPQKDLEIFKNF
Chain of PAK6 (Q9NQU5 whole entry): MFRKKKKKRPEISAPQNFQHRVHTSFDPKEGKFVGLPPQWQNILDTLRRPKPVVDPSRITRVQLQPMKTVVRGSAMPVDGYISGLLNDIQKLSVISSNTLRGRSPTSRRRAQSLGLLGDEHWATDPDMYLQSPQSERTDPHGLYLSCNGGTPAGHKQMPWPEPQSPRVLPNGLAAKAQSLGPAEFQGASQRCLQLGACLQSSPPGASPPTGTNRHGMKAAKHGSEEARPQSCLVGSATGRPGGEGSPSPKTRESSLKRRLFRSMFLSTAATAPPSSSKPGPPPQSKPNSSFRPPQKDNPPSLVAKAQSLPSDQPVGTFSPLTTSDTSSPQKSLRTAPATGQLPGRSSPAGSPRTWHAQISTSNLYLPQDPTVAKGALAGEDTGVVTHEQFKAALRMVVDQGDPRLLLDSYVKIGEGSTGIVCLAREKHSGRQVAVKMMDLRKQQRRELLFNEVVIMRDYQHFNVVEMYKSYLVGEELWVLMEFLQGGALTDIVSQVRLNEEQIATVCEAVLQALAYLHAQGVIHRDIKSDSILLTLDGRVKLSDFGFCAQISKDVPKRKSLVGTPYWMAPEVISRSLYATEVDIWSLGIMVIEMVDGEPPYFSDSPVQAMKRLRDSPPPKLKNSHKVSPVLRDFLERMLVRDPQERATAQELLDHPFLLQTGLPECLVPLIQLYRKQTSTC
Chain of EPHB6 (O15197 32-1021): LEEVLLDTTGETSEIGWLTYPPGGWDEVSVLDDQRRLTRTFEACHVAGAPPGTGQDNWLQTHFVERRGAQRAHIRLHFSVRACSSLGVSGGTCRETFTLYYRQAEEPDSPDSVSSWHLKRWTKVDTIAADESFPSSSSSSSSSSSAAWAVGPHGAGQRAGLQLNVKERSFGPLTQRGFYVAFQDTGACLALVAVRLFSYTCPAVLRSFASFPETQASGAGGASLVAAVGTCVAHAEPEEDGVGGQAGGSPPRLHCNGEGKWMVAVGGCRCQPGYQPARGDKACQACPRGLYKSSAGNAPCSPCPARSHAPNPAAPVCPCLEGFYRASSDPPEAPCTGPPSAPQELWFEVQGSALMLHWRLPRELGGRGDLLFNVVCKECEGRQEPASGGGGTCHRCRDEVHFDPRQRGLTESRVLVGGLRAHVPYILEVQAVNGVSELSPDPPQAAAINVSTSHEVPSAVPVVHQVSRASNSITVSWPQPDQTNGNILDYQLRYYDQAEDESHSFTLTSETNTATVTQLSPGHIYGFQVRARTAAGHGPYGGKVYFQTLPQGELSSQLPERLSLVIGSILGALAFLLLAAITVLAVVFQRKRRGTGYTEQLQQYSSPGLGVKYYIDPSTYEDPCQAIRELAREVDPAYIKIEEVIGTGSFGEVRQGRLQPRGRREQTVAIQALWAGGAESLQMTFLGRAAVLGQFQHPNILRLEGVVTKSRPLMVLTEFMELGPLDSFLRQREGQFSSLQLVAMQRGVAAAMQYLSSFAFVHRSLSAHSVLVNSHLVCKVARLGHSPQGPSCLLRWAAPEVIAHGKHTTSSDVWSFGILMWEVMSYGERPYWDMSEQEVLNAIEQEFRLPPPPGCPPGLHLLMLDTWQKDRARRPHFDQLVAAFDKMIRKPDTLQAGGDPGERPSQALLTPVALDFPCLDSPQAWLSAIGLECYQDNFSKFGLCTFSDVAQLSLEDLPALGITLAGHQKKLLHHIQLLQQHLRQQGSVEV

Structure (SMILES): Cc1cc(Oc2cc(NC(=O)C3CC3)ncn2)ccc1NC(=O)Nc1ccc(Cl)c(C(F)(F)F)c1 [CBT-102]
- remaining activity at 1 µM [1]: 92%
- remaining activity at 1 µM [2]: 52%
- remaining activity at 1 µM (AKT2): 100%
- remaining activity at 1 µM (BRAF (V600E)): 1.8%
- remaining activity at 1 µM (CAMK2A): 88%
- remaining activity at 1 µM (CDK11): 0%
- remaining activity at 1 µM (CDK8): 14%
- remaining activity at 1 µM (CHEK2): 100%
- remaining activity at 1 µM (CSK): 29%
- remaining activity at 1 µM (CSNK1E): 100%
- remaining activity at 1 µM (CSNK1G2): 94%
- remaining activity at 1 µM (CSNK2A2): 100%
- remaining activity at 1 µM (EPHA5): 52%
- remaining activity at 1 µM (EPHB6): 14%
- remaining activity at 1 µM (FLT3 (D835H)): 42%
- remaining activity at 1 µM (HIPK3): 78%
- remaining activity at 1 µM (IKK-epsilon): 100%
- remaining activity at 1 µM (ITK): 90%
- remaining activity at 1 µM (KIT (V559D)): 0%
- remaining activity at 1 µM (LCK): 15%
- remaining activity at 1 µM (MAP3K3): 95%
- remaining activity at 1 µM (MAPKAPK2): 100%
- remaining activity at 1 µM (MARK3): 100%
- remaining activity at 1 µM (MKNK1): 100%
- remaining activity at 1 µM (NEK7): 88%
- remaining activity at 1 µM (NLK): 16%
- remaining activity at 1 µM (p38-alpha): 0%
- remaining activity at 1 µM (PAK6): 94%
- remaining activity at 1 µM (PIK3CA): 100%
- remaining activity at 1 µM (PIK3CA (I800L)): 91%
- remaining activity at 1 µM (PIM1): 95%
- remaining activity at 1 µM (PRKX): 93%
- remaining activity at 1 µM (SNRK): 100%
- remaining activity at 1 µM (TESK1): 100%
- remaining activity at 1 µM (TNK2): 93%
- remaining activity at 1 µM (TSSK1B): 87%
- remaining activity at 1 µM (WEE2): 97%
- Selectivity Score S (1) (403 non-mutant kinases; % Ctrl<1, 1000 nM): 0.032
- Selectivity Score S (10) (403 non-mutant kinases; % Ctrl<10, 1000 nM): 0.089
- Selectivity Score S (35) (403 non-mutant kinases; % Ctrl<35, 1000 nM): 0.151
- Number of Hits, S (1) (403 non-mutant kinases; non-mutant kinases with % Ctrl<1, 1000 nM): 13
- Number of Hits, S (10) (403 non-mutant kinases; non-mutant kinases with % Ctrl<10, 1000 nM): 36
- Number of Hits, S (35) (403 non-mutant kinases; non-mutant kinases with % Ctrl<35, 1000 nM): 61
